The values below come from EP0620225B1, “Cephalosporin derivatives” (Basilea Pharmaceutica AG, priority 1993, dated 1994).

In brackets after ≈: the same amount, converted by molar mass.

Holding throughout (experiment): Antibacterial spectrum (MIC), agar dilution
Common to all, as to type: cell-based

Test [1] has as its system Acinetobacter sp.51-156. The settings on record: SP.51156, read-out: MIC. The protocol:
(§1) In vitro activity was determined by minimum inhibitory concentration in a microorganism spectum by the agar dilution method in Mueller Hinton agar.

Test [2] concerns C.freundii 43. The following applies: Citrobacter freundii, read-out: MIC. The protocol: as §1
In test [3] the test system is C.freundii 902. The settings on record: Citrobacter freundii, read-out: MIC. As to the method:
as §1

Test [4] relates to E.cloacae 908R. The following applies: Enterobacter cloacae, read-out: MIC. The protocol:
as §1

Test [5] relates to E.cloacae 908SSi. The settings on record: Enterobacter cloacae, read-out: MIC. The protocol:
as §1

Test [6] deals with E.coli 25922. The settings on record: Escherichia coli, read-out: MIC. As to the method:
as §1

The test system of test [7] is E.faecalis 6. The settings on record: Enterococcus faecalis, read-out: MIC. The protocol: as §1
The subject of test [8] is H.influenzae 1. The settings on record: Haemophilus influenzae, read-out: MIC. As to the method:
as §1

The subject of test [9] is K.pneumoniae 418. The following applies: Klebsiella pneumoniae, read-out: MIC. As to the method: as §1
In test [10] the test system is L.monocytogenes BK23. The settings on record: Listeria monocytogenes, read-out: MIC. The protocol: as §1
Test [11] concerns M.catarrhalis RA21. The following applies: Moraxella catarrhalis, read-out: MIC. As to the method: as §1
In test [12] the test system is M.morganii 6H-137. The settings on record: Morganella morganii, 6H137, read-out: MIC. The protocol:
as §1

The test system of test [13] is N.meningitidis 69480. The following applies: Neisseria meningitidis, read-out: MIC. The protocol:
as §1

Test [14] concerns P.aeruginosa 27853. The following applies: Pseudomonas aeruginosa, read-out: MIC. As to the method:
as §1

For test [15], the system named is P.mirabilis 2117. The following applies: Proteus mirabilis, read-out: MIC. The protocol: as §1
The test system of test [16] is P.vulgaris 1028. The settings on record: Proteus vulgaris, read-out: MIC. The protocol: as §1
Test [17] relates to S.agalactiae QK44. The following applies: Streptococcus agalactiae, read-out: MIC. The protocol:
as §1

The subject of test [18] is S.aureus 6538. The settings on record: Staphylococcus aureus, read-out: MIC. The protocol: as §1
For test [19], the system named is S.aureus 734 MRSA. The following applies: Staphylococcus aureus, read-out: MIC. As to the method:
as §1

Test [20] relates to S.marcescens 69438. The settings on record: Serratia marcescens, read-out: MIC. The protocol: as §1
For test [21], the system named is S.pneumoniae Q19. The following applies: Streptococcus pneumoniae, read-out: MIC. The protocol: as §1
Test [22] relates to S.pyogenes B15. The settings on record: Streptococcus pyogenes, read-out: MIC. As to the method: as §1
The subject of test [23] is S.viridans group 016. The settings on record: Streptococcus viridans, read-out: MIC. As to the method:
as §1

For test [24], the system named is X.maltophilia 1AC739. The settings on record: Stenotrophomonas maltophilia, read-out: MIC. The protocol: as §1

On to `C=CCN1CC/C(=C\C2=C(C(=O)O)N3C(=O)[C@@H](NC(=O)/C(=N\O)c4csc(N)n4)[C@H]3SC2)C1=O` [L, [6R-[3(E),6α,7β(Z)]]-3-[[1-Allyl-2-oxo-3-pyrrolidinylidene]methyl]-7-[[(2-amino-4-thiazolyl)(hydroxyimino)acetyl]amino]-8-oxo-5-thia-1-azabicyclo[4.2.0]oct-2-ene-2-carboxylic acid], for which the MIC is 16 µg/mL (≈ 31.7 µM) in test [1]; 4 µg/mL (≈ 7.93 µM) in [2]; at most 0.06 µg/mL in test [3]; 16 µg/mL (≈ 31.7 µM) in test [4]; 0.25 µg/mL (≈ 0.495 µM) in test [5]; at most 0.06 µg/mL in test [6]. The MIC in test [7] was 2 µg/mL (≈ 3.96 µM); in [8], 0.5 µg/mL (≈ 0.991 µM); in test [9], 0.12 µg/mL (≈ 0.238 µM); in test [10], 4 µg/mL (≈ 7.93 µM); in test [11] it was 8 µg/mL (≈ 15.9 µM); in test [12] it was at most 0.06 µg/mL. The MIC in [13] is at most 0.06 µg/mL; in test [14] it was 16 µg/mL (≈ 31.7 µM); in [15] it was at most 0.06 µg/mL; in [16], 2 µg/mL (≈ 3.96 µM); in test [17] it was 0.25 µg/mL (≈ 0.495 µM); in [18], 1 µg/mL (≈ 1.98 µM). For the same compound, the MIC was 16 µg/mL (≈ 31.7 µM) in [19]; 1 µg/mL (≈ 1.98 µM) in [20]; at most 0.06 µg/mL in [21]; at most 0.06 µg/mL in test [22]; 1 µg/mL (≈ 1.98 µM) in test [23]; above 32 µg/mL in test [24].
On to `N#CCN1CC/C(=C\C2=C(C(=O)O)N3C(=O)[C@@H](NC(=O)/C(=N\O)c4csc(N)n4)[C@H]3SC2)C1=O` [M, [6R-[3(E),6α,7β(Z)]]-7-[[(2-Amino-4-thiazolyl)(hydroxyimino)acetyl]-amino]-3-[[1-cyanomethyl-2-oxo-3-pyrrolidinylidene]methyl]-8-oxo-5-thia-1-azabicyclo[4.2.0]oct-2-ene-2-carboxylic acid], for which the MIC in [1] is 8 µg/mL (≈ 15.9 µM); in test [2], 8 µg/mL (≈ 15.9 µM); in [3] it was 0.25 µg/mL (≈ 0.497 µM); in test [4] it was 16 µg/mL (≈ 31.8 µM); in [5], 1 µg/mL (≈ 1.99 µM); in test [6], at most 0.06 µg/mL. For the same compound, the MIC in [7] is 1 µg/mL (≈ 1.99 µM); in test [8], 0.5 µg/mL (≈ 0.993 µM); in [9] it was 0.12 µg/mL (≈ 0.238 µM); in test [10], 4 µg/mL (≈ 7.94 µM); in test [11] it was 8 µg/mL (≈ 15.9 µM); in test [12], at most 0.06 µg/mL. Moreover, the MIC was at most 0.06 µg/mL in test [13]; 8 µg/mL (≈ 15.9 µM) in test [14]; at most 0.06 µg/mL in test [15]; 8 µg/mL (≈ 15.9 µM) in test [16]; 0.25 µg/mL (≈ 0.497 µM) in test [17]; 1 µg/mL (≈ 1.99 µM) in test [18]. The MIC is 4 µg/mL (≈ 7.94 µM) in [19]; 4 µg/mL (≈ 7.94 µM) in test [20]; at most 0.06 µg/mL in test [21]; at most 0.06 µg/mL in test [22]; 1 µg/mL (≈ 1.99 µM) in test [23]; above 32 µg/mL in [24].
